# Data published in ChEMBL document CHEMBL3879915, “Methods of inhibiting PRMT5” (2014).
# Molecular target: PRMT5/MEP50 complex (Homo sapiens, UniProt O14744)
# Experiment: Inhibition of recombinant human fetal brain FLAG-tagged PRMT5/full length human testis 6His-tagged MEP50 expressed in baculovirus infected insect Sf9 cells using human histone H4 (1 to 15 residues) as substrate preincubated for 30 mins followed by [3H]-SAM addition
# PRMT5/MEP50 complex, sequence (O14744 whole entry, the tested form may be a part): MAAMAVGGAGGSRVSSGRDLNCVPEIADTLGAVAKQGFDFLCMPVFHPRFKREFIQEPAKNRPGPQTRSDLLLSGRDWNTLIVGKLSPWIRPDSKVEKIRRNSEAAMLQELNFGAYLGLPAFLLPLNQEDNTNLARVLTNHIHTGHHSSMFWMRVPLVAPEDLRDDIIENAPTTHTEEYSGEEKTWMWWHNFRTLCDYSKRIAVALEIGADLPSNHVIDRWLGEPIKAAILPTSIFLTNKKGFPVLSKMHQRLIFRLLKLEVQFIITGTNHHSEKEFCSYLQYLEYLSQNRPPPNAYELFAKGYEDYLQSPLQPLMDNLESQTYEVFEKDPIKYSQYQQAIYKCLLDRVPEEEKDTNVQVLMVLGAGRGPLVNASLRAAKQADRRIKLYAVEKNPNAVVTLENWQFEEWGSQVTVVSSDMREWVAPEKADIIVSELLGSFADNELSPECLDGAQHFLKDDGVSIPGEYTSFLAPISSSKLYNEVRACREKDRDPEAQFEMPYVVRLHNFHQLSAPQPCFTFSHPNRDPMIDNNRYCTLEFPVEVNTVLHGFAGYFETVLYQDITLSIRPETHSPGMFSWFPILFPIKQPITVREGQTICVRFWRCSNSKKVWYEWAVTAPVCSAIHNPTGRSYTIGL
# PRMT5/MEP50 complex, sequence (Q9BQA1 whole entry, further chain, the tested form may be a part): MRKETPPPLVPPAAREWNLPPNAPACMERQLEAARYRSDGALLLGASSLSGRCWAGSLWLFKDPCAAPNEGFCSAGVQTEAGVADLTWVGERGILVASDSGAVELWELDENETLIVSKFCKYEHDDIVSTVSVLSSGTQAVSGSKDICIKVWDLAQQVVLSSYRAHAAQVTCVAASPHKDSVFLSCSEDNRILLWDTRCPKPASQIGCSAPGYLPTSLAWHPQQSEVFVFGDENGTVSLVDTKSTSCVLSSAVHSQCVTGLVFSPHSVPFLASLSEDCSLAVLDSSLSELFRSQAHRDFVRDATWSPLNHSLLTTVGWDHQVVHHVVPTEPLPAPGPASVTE
row,SMILES,IC50
1,COc1ccc(Cn2ccc(-c3ccc(OC[C@H](O)CN4CCc5ccccc5C4)cc3)n2)cc1,1 to 10 µM
2,CN(C(=O)c1cncn1C)c1cccc(OCC(O)CN2CCc3ccccc3C2)c1 (stereo unspecified),1 to 10 µM
3,OC(COc1cccc(-c2ccncc2F)c1)CN1CCc2ccccc2C1 (stereo unspecified),1 to 10 µM
4,COc1ncc(-c2cccc(OCC(O)CN3CCc4ccccc4C3)c2)cn1 (stereo unspecified),1 to 10 µM
5,OC(COC1CCCC1)CN1CCc2ccccc2C1 (stereo unspecified),1 to 10 µM
6,OC(COc1ccc(OCc2ccccc2)cc1)CN1CCc2ccccc2C1 (stereo unspecified),1 to 10 µM
7,OCc1ccc(-c2cccc(OCC(O)CN3CCc4ccccc4C3)c2)cc1 (stereo unspecified),1 to 10 µM
8,Oc1ccc(-c2cccc(OCC(O)CN3CCc4ccccc4C3)c2)cc1F (stereo unspecified),1 to 10 µM
9,COc1cc2c(cc1OC)CN(CC(O)COc1cccc(-c3ccc4ncn(C)c4c3)c1)CC2 (stereo unspecified),> 40 µM
10,Cn1cncc1C(=O)Nc1cccc(OC[C@@H](O)CN2CCc3ccccc3C2)c1,1 to 10 µM
11,COc1ccc(Cn2ccc(-c3ccc(OC[C@@H](O)CN4CCc5ccccc5C4)cc3)n2)cc1,10 to 40 µM
12,O=C(Nc1ccccn1)c1cccc(OCC(O)CN2CCc3ccccc3C2)c1 (stereo unspecified),0.101 to 1 µM
13,Cn1cnc2ccc(-c3cccc(OCC(O)CN4CCc5ccc(Cl)cc5C4)c3)cc21 (stereo unspecified),1 to 10 µM
14,O=C(COc1cccc2cccnc12)NC[C@@H](O)CN1Cc2ccccc2C1,1 to 10 µM
15,COc1ccc2c(c1)CN(CC(O)COc1cccc(-c3ccc4ncn(C)c4c3)c1)CC2 (stereo unspecified),10 to 40 µM
16,OC(COc1cccc(-c2cccc(Oc3ccccc3)c2)c1)CN1CCc2ccccc2C1 (stereo unspecified),1 to 10 µM
17,OC(COc1cccc(-c2cnccn2)c1)CN1CCc2ccccc2C1 (stereo unspecified),1 to 10 µM
18,O=C(Nc1cccc(OCC(O)CN2CCc3ccccc3C2)c1)c1cnco1 (stereo unspecified),1 to 10 µM
19,Cn1cnc2nc(-c3cccc(OCC(O)CN4CCc5ccccc5C4)c3)ncc21 (stereo unspecified),1 to 10 µM
20,CN1CC(n2cnc3ccc(-c4ccnc(NCC(O)CN5CCc6ccccc6C5)c4)cc32)C1 (stereo unspecified),< 0.1 µM
21,OC(COCc1ccccn1)CN1CCc2ccccc2C1 (stereo unspecified),10 to 40 µM
22,O=C(Nc1cccnc1)c1cccc(OCC(O)CN2CCc3ccccc3C2)c1 (stereo unspecified),1 to 10 µM
23,OC(CCc1cccc(CNC2CCCC2)c1)CN1CCc2ccccc2C1 (stereo unspecified),10 to 40 µM

row,SMILES,IC50
1,OC(COc1cccc(C2=CCCCC2)c1)CN1CCc2ccccc2C1 (stereo unspecified),1 to 10 µM
2,Cn1cnc2ccc(N3CCCC(OCC(O)CN4CCc5ccccc5C4)C3)cc21 (stereo unspecified),0.101 to 1 µM
3,COc1c(COCC(O)CN2CCc3ccccc3C2)ccc2ccccc12 (stereo unspecified),1 to 10 µM
4,CN(C(=O)c1cocn1)c1cccc(OCC(O)CN2CCc3ccccc3C2)c1 (stereo unspecified),10 to 40 µM
5,Cc1ccc(-c2cccc(OCC(O)CN3CCc4ccccc4C3)c2)cn1 (stereo unspecified),1 to 10 µM
6,CC1Cc2ccccc2CN1CC(O)COc1cccc(CNC2CCCC2)c1 (stereo unspecified),> 40 µM
7,COc1ccc(Cn2nccc2-c2ccc(OC[C@H](O)CN3CCc4ccccc4C3)cc2)cc1,1 to 10 µM
8,O=C(NC1CCOCC1)c1cccc(NCC(O)CN2CCc3ccccc3C2)c1 (stereo unspecified),10 to 40 µM
9,CCOC(=O)CC1c2ccccc2CCN1CC(O)COc1cccc(-c2ccc3ncn(C)c3c2)c1 (stereo unspecified),1 to 10 µM
10,COc1ccccc1-c1cccc(OCC(O)CN2CCc3ccccc3C2)c1 (stereo unspecified),1 to 10 µM
11,OC(COc1cccc(-c2ccncc2)c1)CN1CCc2ccccc2C1 (stereo unspecified),1 to 10 µM
12,CC1c2ccccc2CCN1CC(O)COc1cccc(CNC2CCCC2)c1 (stereo unspecified),1 to 10 µM
13,Cn1cnc2ccc(-c3cccc(OCC(O)CN4CCc5c(Cl)cccc5C4)c3)cc21 (stereo unspecified),1 to 10 µM
14,Cn1cnc2ccc(-c3cccc(OCC(O)CN4CCc5ccccc5C4=O)c3)cc21 (stereo unspecified),> 40 µM
15,Cn1cnc2ccc(-c3cccc(OC[C@@H](O)CN4Cc5ccccc5C4)c3)cc21,10 to 50 µM
16,Oc1ccc(-c2cccc(OCC(O)CN3CCc4ccccc4C3)c2)cc1 (stereo unspecified),1 to 10 µM
17,CCOC(=O)C1c2ccccc2CCN1CC(O)COc1cccc(-c2ccc3ncn(C)c3c2)c1 (stereo unspecified),> 40 µM
18,Cc1cccc2c1CCN(CC(O)COc1cccc(-c3ccc4ncn(C)c4c3)c1)C2 (stereo unspecified),1 to 10 µM
19,Cn1cnc2ccc(-c3nccc(NCC(O)CN4CCc5ccccc5C4)n3)cc21 (stereo unspecified),1 to 10 µM
20,O=C(c1cncc(-c2cccc(OCC(O)CN3CCc4ccccc4C3)c2)c1)N1CCCC1 (stereo unspecified),1 to 10 µM
21,OC(COc1cccc(-c2cncnc2)c1)CN1CCc2ccccc2C1 (stereo unspecified),1 to 10 µM
22,OC(COC1CCN(c2ccccc2)C1)CN1CCc2ccccc2C1 (stereo unspecified),1 to 10 µM
23,OC(COc1ccc(-c2ccn[nH]2)cc1)CN1CCc2ccccc2C1 (stereo unspecified),1 to 10 µM

row,SMILES,IC50
1,C[C@@H](Oc1cccc2cccnc12)C(=O)NC[C@@H](O)CN1Cc2ccccc2C1,1 to 10 µM
2,Cn1cnc2ccc(-c3cccc(OCC(O)CN4CCc5ccccc5C4(C)C)c3)cc21 (stereo unspecified),1 to 10 µM
3,Nc1cccc(C(=O)NCC(O)CN2Cc3ccccc3C2)c1 (stereo unspecified),1 to 10 µM
4,CC(=O)N1CCC(n2cnc3ccc(-c4cccc(OCC(O)CN5CCc6ccccc6C5)c4)cc32)CC1 (stereo unspecified),0.101 to 1 µM
5,Cc1ccc2c(c1)CN(CC(O)COc1cccc(-c3ccc4ncn(C)c4c3)c1)CC2 (stereo unspecified),1 to 10 µM
6,CN(C(=O)c1cccnc1)c1cccc(OCC(O)CN2CCc3ccccc3C2)c1 (stereo unspecified),1 to 10 µM
7,Cn1cnc2ccc(-c3cccc(OCC(O)CN4Cc5ccccc5C4)c3)cc21 (stereo unspecified),1 to 10 µM
8,Cn1ccc2ccc(-c3ccnc(NCC(O)CN4CCc5ccccc5C4)c3)cc21 (stereo unspecified),< 0.1 µM
9,OC(COCc1ccncc1)CN1CCc2ccccc2C1 (stereo unspecified),10 to 40 µM
10,O=C(Nc1cccc(OCC(O)CN2CCc3ccccc3C2)c1)c1ccnnc1 (stereo unspecified),1 to 10 µM
11,OC(COc1cccc(-c2cccnc2)c1)CN1CCc2ccccc2C1 (stereo unspecified),1 to 10 µM
12,OC(COc1cccc(C2CCCCC2)c1)CN1CCc2ccccc2C1 (stereo unspecified),1 to 10 µM
13,CN(C(=O)c1cnco1)c1cccc(OCC(O)CN2CCc3ccccc3C2)c1 (stereo unspecified),1 to 10 µM
14,CN(C)S(=O)(=O)c1cccc(-c2cccc(OCC(O)CN3CCc4ccccc4C3)c2)c1 (stereo unspecified),> 40 µM
15,O=C(Cn1ccc2cnc(-c3cccc(OCC(O)CN4CCc5ccccc5C4)c3)nc21)N1CCCCC1 (stereo unspecified),0.101 to 1 µM
16,OC(COC1CCN(Cc2ccccc2)C1)CN1CCc2ccccc2C1 (stereo unspecified),1 to 10 µM
17,COc1ccc(Cl)c(-c2cccc(OCC(O)CN3CCc4ccccc4C3)c2)c1 (stereo unspecified),1 to 10 µM
18,Cn1cnc2ccc(-c3cccc(OCC(O)CN4Cc5ccccc5C(F)(F)C4)c3)cc21 (stereo unspecified),> 10 µM
19,OC(COc1cccc(-c2cccc(C(F)(F)F)c2)c1)CN1CCc2ccccc2C1 (stereo unspecified),1 to 10 µM
20,OC(COCc1cccnc1)CN1CCc2ccccc2C1 (stereo unspecified),10 to 40 µM
21,Cn1cc(-c2cccc(OCC(O)CN3CCc4ccccc4C3)c2)cn1 (stereo unspecified),1 to 10 µM
22,OC(COc1cccc(-c2cncc(F)c2)c1)CN1CCc2ccccc2C1 (stereo unspecified),1 to 10 µM
23,Cn1cnc2ccc(-c3cccc(OCC(O)CN4CCc5ccccc5C4COc4ccccc4)c3)cc21 (stereo unspecified),> 40 µM

# Now from value to molecule:
row,IC50,SMILES
1,1 to 10 µM,OC(COCc1ccc(Cl)cc1)CN1CCc2ccccc2C1 (stereo unspecified)
2,1 to 10 µM,COc1cccc2c1CN(CC(O)COc1cccc(-c3ccc4ncn(C)c4c3)c1)CC2 (stereo unspecified)
3,1 to 10 µM,O=C(COCc1cccnc1)NCC(O)CN1CCc2ccccc2C1 (stereo unspecified)
4,1 to 10 µM,OC(COc1cccc(-c2ccc(F)cc2)c1)CN1CCc2ccccc2C1 (stereo unspecified)
5,1 to 10 µM,CC1CN(CC(O)COc2cccc(-c3ccc4ncn(C)c4c3)c2)Cc2ccccc21 (stereo unspecified)
6,1 to 10 µM,Cn1cc2cc(-c3cccc(OCC(O)CN4CCc5ccccc5C4)c3)ccc2n1 (stereo unspecified)
7,1 to 10 µM,CC1Cc2ccccc2CN1CC(O)COc1cccc(-c2ccc3ncn(C)c3c2)c1 (stereo unspecified)
8,1 to 10 µM,OC(COc1cccc(-c2ccccn2)c1)CN1CCc2ccccc2C1 (stereo unspecified)
9,1 to 10 µM,OC(COc1cccc(N2CCc3[nH]nc(-c4ccccc4)c3C2)c1)CN1CCc2ccccc2C1 (stereo unspecified)
10,< 0.1 µM,OC(CNc1cc(-c2ccc3ncn(C4CNC4)c3c2)ccn1)CN1CCc2ccccc2C1 (stereo unspecified)
11,1 to 10 µM,CN(C(=O)c1cn(C)cn1)c1cccc(OCC(O)CN2CCc3ccccc3C2)c1 (stereo unspecified)
12,1 to 10 µM,CNC(=O)Cn1ccc2cnc(-c3cccc(OCC(O)CN4CCc5ccccc5C4)c3)nc21 (stereo unspecified)
13,1 to 10 µM,OC(COCc1ccc(Cl)cc1Cl)CN1CCc2ccccc2C1 (stereo unspecified)
14,1 to 10 µM,OC(COc1cccc(-c2ccc(Cl)cc2)c1)CN1CCc2ccccc2C1 (stereo unspecified)
15,1 to 10 µM,OC(COCc1ccc(CN2CCOCC2)cc1)CN1CCc2ccccc2C1 (stereo unspecified)
16,> 40 µM,Cn1cnc2ccc(-c3cccc(OCC(O)CN4CCc5ccccc5C4CC(N)=O)c3)cc21 (stereo unspecified)
17,> 40 µM,CC1CN(CC(O)COc2cccc(CNC3CCCC3)c2)Cc2ccccc21 (stereo unspecified)
18,1 to 10 µM,CC(C)(C)OC(=O)N1CCC(OCC(O)CN2CCc3ccccc3C2)C1 (stereo unspecified)
19,0.101 to 1 µM,CN1CCCc2c(OCC(=O)NCC(O)CN3CCc4ccccc4C3)cccc21 (stereo unspecified)

row,IC50,SMILES
1,10 to 40 µM,CN(CC(O)CN1CCc2ccccc2C1)c1cccc(C(=O)NC2CCOCC2)c1 (stereo unspecified)
2,1 to 10 µM,O=C(Nc1cc[nH]n1)c1cccc(OCC(O)CN2CCc3ccccc3C2)c1 (stereo unspecified)
3,1 to 10 µM,OC(COc1cccc(-c2cccc(Cl)c2)c1)CN1CCc2ccccc2C1 (stereo unspecified)
4,1 to 10 µM,Cn1cnc2ccc(-c3cccc(OC[C@H](O)CN4Cc5ccccc5C4)c3)cc21
5,1 to 10 µM,COc1ccc(Cn2cnc3ccc(-c4ccc(OCC(O)CN5Cc6ccccc6C5)cc4)cc32)cc1 (stereo unspecified)
6,1 to 10 µM,OC(COc1cccc(-c2cc(Cl)cc(C(F)(F)F)c2)c1)CN1CCc2ccccc2C1 (stereo unspecified)
7,0.101 to 1 µM,Cc1cc(OCC(O)CN2CCc3ccccc3C2)c(C)cc1CN1CCOCC1 (stereo unspecified)
8,1 to 10 µM,O=C(Nc1cccc(OCC(O)CN2CCc3ccccc3C2)c1)c1cocn1 (stereo unspecified)
9,1 to 10 µM,OC(COc1cccc(-c2ccc(C(F)(F)F)cc2)c1)CN1CCc2ccccc2C1 (stereo unspecified)
10,1 to 10 µM,Cn1cncc1C(=O)Nc1cccc(OCC(O)CN2CCc3ccccc3C2)c1 (stereo unspecified)
11,1 to 10 µM,Cc1cccc2c1CN(CC(O)COc1cccc(-c3ccc4ncn(C)c4c3)c1)CC2 (stereo unspecified)
12,0.101 to 1 µM,O=C(Cn1ccc2cnc(-c3cccc(OCC(O)CN4CCc5ccccc5C4)c3)nc21)N1CCCC1 (stereo unspecified)
13,> 40 µM,COc1cccc2c1CCN(CC(O)COc1cccc(CNC3CCCC3)c1)C2 (stereo unspecified)
14,> 40 µM,COc1ccc(Cn2nccc2-c2ccc(OC[C@@H](O)CN3CCc4ccccc4C3)cc2)cc1
15,1 to 10 µM,OC(COc1cccc(OCc2ccccc2)c1)CN1CCc2ccccc2C1 (stereo unspecified)
16,1 to 10 µM,COc1cccc2c1CCN(CC(O)COc1cccc(-c3ccc4ncn(C)c4c3)c1)C2 (stereo unspecified)
17,1 to 10 µM,C[C@H](Oc1cccc2cccnc12)C(=O)NC[C@H](O)CN1Cc2ccccc2C1
18,> 40 µM,Cn1cnc2ccc(-c3cccc(OCC(O)CN4CCc5ccccc5C4Cc4ccccc4)c3)cc21 (stereo unspecified)
